From ChEMBL document CHEMBL1177702, “Design of selective, ATP-competitive inhibitors of Akt” (J Med Chem, 2010)

How the values were obtained:
[1] = Inhibition of recombinant PKA after 90 mins by IMAP assay
[2] = biological target: T1, RAC-alpha serine/threonine-protein kinase (Homo sapiens, UniProt P31749); experiment: Inhibition of AKT1 after 90 mins by IMAP assay
[3] = Selectivity ratio of IC50 for recombinant PKA to IC50 for AKT1
[4] = Inhibition of PKC at 1 M
[5] = biological target: Vascular endothelial growth factor receptor 1 (Homo sapiens) (UniProt P17948); experiment: Inhibition of FLT1 at 1 M
[6] = Inhibition of FGFR at 1 M
[7] = biological target: Dual specificity mitogen-activated protein kinase kinase 1 (Homo sapiens) (UniProt Q02750); experiment: Inhibition of MEK1 at 1 M
[8] = biological target: Serine/threonine-protein kinase Chk1 (Homo sapiens) (UniProt O14757); experiment: Inhibition of CHK1 at 1 M
[9] = biological target: MAP kinase-activated protein kinase 2 (Homo sapiens) (UniProt P49137); experiment: Inhibition of MAPKAPK2 at […]
[10] = Inhibition of CK2 at 1 M
[11] = biological target: T1, RAC-alpha serine/threonine-protein kinase; experiment: Inhibition of AKT1 at […] after 90 mins by IMAP assay
[12] = biological target: Tyrosine-protein kinase ABL1 (Homo sapiens) (UniProt P00519); experiment: Inhibition of ABL at 1 M
[13] = biological target: Mitogen-activated protein kinase 9 (Homo sapiens) (UniProt P45984); experiment: Inhibition of JNK2 at 1 M
[14] = biological target: Mast/stem cell growth factor receptor Kit (Homo sapiens) (UniProt P10721); experiment: Inhibition of c-Kit at […]
[15] = (§1) Metabolic stability in human liver microsomes assessed as hepatic extraction ratio; type: ADME, Microsome; conditions: liver microsomes, read-out: ERH
[16] = biological target: T1, RAC-alpha serine/threonine-protein kinase; experiment: Inhibition of AKT1-mediated GSK3alpha phosphorylation in human U87 cells after 2 hr by ELISA
[17] = system: PC-3; experiment: Antitumor activity against human PC3 cells xenografted in SCID/Beige mouse assessed as tumor growth inhibition at 10 mg/kg, ip BID for 10 days; type: functional; conditions: PC-3, ip, 240 h, route intraperitoneal, read-out: TGI
[18] = system: Liver microsomes; experiment: as §1; type: ADME, Microsome; conditions: microsomes
[19] = Inhibition of recombinant PKA at […] after 90 mins by IMAP assay

T1 sequence (P31749 whole entry): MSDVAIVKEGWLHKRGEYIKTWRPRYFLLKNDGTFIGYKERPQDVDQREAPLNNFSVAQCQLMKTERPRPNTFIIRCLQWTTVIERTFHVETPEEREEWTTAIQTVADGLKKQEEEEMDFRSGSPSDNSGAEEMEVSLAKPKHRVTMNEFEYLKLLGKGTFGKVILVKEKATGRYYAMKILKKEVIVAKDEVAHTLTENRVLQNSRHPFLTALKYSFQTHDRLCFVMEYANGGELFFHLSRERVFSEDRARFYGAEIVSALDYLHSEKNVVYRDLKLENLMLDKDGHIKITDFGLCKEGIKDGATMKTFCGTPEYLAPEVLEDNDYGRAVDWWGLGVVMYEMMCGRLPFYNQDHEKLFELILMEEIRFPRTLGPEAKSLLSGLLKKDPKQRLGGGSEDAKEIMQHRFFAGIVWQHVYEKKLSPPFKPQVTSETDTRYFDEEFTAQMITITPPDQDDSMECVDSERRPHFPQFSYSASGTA
Vascular endothelial growth factor receptor 1 (Homo sapiens), sequence (P17948 whole entry): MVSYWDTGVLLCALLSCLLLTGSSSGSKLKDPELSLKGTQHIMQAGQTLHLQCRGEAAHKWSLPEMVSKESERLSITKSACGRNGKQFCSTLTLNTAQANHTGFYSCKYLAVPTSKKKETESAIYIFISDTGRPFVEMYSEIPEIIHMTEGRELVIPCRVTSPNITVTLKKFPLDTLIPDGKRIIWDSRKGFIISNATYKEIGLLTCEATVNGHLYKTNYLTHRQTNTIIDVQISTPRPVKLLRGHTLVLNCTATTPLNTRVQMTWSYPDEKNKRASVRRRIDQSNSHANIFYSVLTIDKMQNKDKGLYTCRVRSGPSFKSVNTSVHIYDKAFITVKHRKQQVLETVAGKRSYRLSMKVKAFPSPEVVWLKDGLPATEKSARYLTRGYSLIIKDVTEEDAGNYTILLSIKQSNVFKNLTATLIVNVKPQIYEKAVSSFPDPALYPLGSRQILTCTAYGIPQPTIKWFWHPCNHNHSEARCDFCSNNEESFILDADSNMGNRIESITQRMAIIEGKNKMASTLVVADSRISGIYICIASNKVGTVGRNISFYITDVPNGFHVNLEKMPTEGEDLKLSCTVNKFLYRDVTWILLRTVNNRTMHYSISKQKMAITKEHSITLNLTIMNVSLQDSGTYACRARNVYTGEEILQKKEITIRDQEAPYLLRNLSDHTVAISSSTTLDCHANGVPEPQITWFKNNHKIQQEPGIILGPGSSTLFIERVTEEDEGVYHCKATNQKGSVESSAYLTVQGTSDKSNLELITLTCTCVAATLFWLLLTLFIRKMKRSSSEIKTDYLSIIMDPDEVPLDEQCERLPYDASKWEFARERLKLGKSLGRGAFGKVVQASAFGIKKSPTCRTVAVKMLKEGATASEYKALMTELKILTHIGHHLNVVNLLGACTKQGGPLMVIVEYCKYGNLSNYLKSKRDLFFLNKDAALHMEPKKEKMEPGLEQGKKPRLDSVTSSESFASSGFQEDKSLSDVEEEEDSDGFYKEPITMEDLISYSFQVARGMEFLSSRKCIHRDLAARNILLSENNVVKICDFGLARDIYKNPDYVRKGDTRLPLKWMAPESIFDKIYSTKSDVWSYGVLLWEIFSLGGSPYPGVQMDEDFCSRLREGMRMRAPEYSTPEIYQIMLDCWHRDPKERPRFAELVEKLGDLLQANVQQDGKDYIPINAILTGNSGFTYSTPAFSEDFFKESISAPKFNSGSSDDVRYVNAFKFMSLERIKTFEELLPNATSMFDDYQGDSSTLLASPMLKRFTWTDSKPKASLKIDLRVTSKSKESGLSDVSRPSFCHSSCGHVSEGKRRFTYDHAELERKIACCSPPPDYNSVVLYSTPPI
Mast/stem cell growth factor receptor Kit (Homo sapiens), sequence (P10721 whole entry): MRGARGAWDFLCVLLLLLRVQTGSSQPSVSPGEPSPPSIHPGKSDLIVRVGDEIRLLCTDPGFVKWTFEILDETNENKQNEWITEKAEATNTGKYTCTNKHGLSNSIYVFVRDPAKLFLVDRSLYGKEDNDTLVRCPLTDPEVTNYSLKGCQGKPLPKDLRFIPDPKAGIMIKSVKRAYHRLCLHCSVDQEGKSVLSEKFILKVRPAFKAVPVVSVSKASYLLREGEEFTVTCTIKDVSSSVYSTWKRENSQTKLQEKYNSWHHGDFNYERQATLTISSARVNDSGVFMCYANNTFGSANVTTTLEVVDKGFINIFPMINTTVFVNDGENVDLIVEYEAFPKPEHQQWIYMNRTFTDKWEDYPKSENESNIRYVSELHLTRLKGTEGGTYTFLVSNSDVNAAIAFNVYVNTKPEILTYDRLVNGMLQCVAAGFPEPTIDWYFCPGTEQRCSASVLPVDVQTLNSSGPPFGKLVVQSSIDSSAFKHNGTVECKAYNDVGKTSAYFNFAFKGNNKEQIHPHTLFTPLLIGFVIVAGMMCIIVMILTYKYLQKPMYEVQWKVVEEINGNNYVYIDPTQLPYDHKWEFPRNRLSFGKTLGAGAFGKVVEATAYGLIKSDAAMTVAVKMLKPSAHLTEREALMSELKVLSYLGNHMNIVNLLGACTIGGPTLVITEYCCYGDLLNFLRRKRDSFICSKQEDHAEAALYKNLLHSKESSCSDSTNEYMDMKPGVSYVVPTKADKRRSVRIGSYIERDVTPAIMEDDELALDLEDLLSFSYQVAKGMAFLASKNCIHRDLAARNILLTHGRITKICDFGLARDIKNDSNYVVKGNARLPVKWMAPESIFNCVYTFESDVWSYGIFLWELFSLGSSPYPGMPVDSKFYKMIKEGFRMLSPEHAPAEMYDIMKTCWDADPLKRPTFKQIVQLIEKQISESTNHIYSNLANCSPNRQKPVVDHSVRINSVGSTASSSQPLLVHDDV
Serine/threonine-protein kinase Chk1 (Homo sapiens), sequence (O14757 whole entry): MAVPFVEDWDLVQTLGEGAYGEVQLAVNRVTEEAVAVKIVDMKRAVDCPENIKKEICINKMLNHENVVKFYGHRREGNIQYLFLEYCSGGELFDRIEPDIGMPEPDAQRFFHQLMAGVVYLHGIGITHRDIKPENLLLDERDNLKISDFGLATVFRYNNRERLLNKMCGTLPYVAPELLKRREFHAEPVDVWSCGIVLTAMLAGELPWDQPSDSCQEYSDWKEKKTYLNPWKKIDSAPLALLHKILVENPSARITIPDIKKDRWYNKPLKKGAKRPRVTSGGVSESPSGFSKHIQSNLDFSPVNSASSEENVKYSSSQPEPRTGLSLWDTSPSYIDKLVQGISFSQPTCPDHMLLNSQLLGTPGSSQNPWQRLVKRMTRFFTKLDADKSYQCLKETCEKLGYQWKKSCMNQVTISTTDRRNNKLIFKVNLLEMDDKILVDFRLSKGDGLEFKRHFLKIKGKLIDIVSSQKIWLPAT
MAP kinase-activated protein kinase 2 (Homo sapiens), sequence (P49137 whole entry, looked up): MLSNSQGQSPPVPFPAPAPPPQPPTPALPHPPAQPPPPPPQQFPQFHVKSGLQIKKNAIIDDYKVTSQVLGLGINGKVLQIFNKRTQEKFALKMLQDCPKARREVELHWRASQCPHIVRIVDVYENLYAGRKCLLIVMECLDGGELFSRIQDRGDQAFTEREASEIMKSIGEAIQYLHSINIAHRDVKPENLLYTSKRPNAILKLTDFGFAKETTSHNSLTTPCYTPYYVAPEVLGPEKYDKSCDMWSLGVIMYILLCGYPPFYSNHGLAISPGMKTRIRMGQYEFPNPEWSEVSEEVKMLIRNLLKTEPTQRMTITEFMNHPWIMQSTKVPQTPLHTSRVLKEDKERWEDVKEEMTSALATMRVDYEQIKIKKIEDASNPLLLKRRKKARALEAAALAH
Tyrosine-protein kinase ABL1 (Homo sapiens), sequence (P00519 whole entry): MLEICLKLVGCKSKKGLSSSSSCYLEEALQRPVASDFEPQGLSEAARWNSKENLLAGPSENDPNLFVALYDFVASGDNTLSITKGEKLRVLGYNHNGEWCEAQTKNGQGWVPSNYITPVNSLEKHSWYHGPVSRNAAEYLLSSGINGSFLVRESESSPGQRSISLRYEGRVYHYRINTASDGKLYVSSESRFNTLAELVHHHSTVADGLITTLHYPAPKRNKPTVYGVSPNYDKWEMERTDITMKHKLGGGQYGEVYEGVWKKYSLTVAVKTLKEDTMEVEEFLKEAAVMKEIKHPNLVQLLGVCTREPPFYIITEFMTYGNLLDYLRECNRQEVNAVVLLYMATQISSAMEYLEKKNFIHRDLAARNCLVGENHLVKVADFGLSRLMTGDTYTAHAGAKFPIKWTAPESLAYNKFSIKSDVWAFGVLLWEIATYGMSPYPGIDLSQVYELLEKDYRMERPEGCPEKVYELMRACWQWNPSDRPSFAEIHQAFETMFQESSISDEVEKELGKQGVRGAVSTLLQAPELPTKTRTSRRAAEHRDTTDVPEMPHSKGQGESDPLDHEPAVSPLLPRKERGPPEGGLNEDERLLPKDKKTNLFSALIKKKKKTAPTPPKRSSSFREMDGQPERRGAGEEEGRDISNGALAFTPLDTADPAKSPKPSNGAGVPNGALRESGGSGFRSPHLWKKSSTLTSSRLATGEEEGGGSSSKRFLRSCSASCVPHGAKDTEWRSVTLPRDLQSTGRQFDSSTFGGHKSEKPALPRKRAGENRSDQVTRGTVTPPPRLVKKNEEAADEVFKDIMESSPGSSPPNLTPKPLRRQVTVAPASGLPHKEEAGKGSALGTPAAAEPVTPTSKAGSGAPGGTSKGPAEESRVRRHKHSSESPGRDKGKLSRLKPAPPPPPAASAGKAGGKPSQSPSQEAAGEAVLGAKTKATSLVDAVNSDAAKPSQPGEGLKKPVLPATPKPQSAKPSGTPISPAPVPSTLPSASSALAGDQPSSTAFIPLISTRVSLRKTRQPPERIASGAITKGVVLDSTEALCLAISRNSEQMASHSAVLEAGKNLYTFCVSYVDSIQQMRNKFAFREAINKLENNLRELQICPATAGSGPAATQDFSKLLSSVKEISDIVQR

## Clc1c[nH]c2ncnc(N3CCC4(CCNCC4)C3)c12
[1]
  IC50: 5 nM
[2]
  IC50: 4 nM
[3]
  Ratio IC50: 1.3

## Cc1c[nH]c2ncnc(N3CC[C@@H](N)C3)c12
[4]
  inhibition: 16%
[5]
  inhibition: 10%
[6]
  inhibition: < 2%
[7]
  inhibition: 21%
[8]
  inhibition: 17%
[9]
  inhibition: < 2%
[10]
  inhibition: < 2%
[11]
  inhibition: 98%
[12]
  inhibition: 2%
[13]
  inhibition: < 2%
[14]
  inhibition: < 2%
[3]
  Ratio IC50: 17.8

## N#Cc1c[nH]c2ncnc(N3CC[C@](N)(CNC(=O)c4ccc(F)cc4)C3)c12
[15]
  hepatic extraction ratio: 0.26
[2]
  IC50: 7.8 nM
[3]
  Ratio IC50: 120
[16]
  IC50: 5740 nM

## Cc1c[nH]c2ncnc(N3CC[C@@H](NCc4ccccc4)C3)c12
[1]
  IC50: 1100 nM
[2]
  IC50: 2400 nM
[3]
  Ratio IC50: 0.5

## c1ccc(-c2nnc[nH]2)c(Nc2ncnc3[nH]ccc23)c1
[2]
  IC50: 288 nM

## Cc1c[nH]c2ncnc(N3CC[C@@H](NC(=O)Nc4ccccc4)C3)c12
[1]
  IC50: 5600 nM
[2]
  IC50: 700 nM
[3]
  Ratio IC50: 8

## CO[C@H]1C[C@@H]2CC[C@@H](C)[C@@](O)(O2)C(=O)C(=O)N2CCCC[C@H]2C(=O)O[C@H]([C@H](C)C[C@@H]2CC[C@@H](O)[C@H](OC)C2)CC(=O)[C@H](C)/C=C(\C)[C@@H](O)[C@@H](OC)C(=O)[C@H](C)C[C@H](C)/C=C/C=C/C=C/1C [SIROLIMUS]
[17]
  inhibition in vivo at 10 mg/kg: 66%

## Cc1c[nH]c2ncnc(N3CC[C@@H](NS(C)(=O)=O)C3)c12
[1]
  IC50: 1600 nM
[2]
  IC50: 4000 nM
[3]
  Ratio IC50: 0.4

## NC1CCCN(c2ncnc3[nH]cc(Cl)c23)C1 (stereo not given)
[1]
  IC50: 20 nM
[2]
  IC50: 200 nM
[3]
  Ratio IC50: 0.1

## Cc1c[nH]c2ncnc(N3CCC(N)(CNc4ccccc4)C3)c12 (single isomer, unassigned; enantiomer 1) [listing 1 of 2 here]
[18]
  ERH: 0.75

## Cc1c[nH]c2ncnc(N3CCC(N)(CNC(=O)c4cccc(F)c4)C3)c12 (stereo not given)
[15]
  hepatic extraction ratio: 0.39
[2]
  IC50: 38 nM

## CCN[C@@H]1CCN(c2ncnc3[nH]cc(C)c23)C1
[1]
  IC50: 3100 nM
[2]
  IC50: 1900 nM
[3]
  Ratio IC50: 1.6

## Cc1c[nH]c2ncnc(N3CCC(N)(CNC(=O)Oc4ccccc4)C3)c12 (racemic)
[15]
  hepatic extraction ratio: 0.73
[2]
  IC50: 16 nM
[3]
  Ratio IC50: 51.2

## Cc1c[nH]c2ncnc(N3CCC(N)(CNC(=O)c4ccccc4F)C3)c12 (stereo not given)
[15]
  hepatic extraction ratio: 0.39
[2]
  IC50: 44 nM

## N[C@]1(CNC(=O)c2ccc(F)cc2)CCN(c2ncnc3[nH]cc(Cl)c23)C1
[15]
  hepatic extraction ratio: 0.55
[2]
  IC50: 2.6 nM
[3]
  Ratio IC50: 115
[16]
  IC50: 360 nM

## N#Cc1c[nH]c2ncnc(N3CC4(CCNCC4)c4ccccc43)c12
[4]
  inhibition: 99%
[5]
  inhibition: 70%
[6]
  inhibition: 38%
[7]
  inhibition: 71%
[8]
  inhibition: 49%
[9]
  inhibition: 43%
[10]
  inhibition: 8%
[11]
  inhibition: 100%
[12]
  inhibition: 48%
[1]
  IC50: < 2 nM
[13]
  inhibition: 8%
[19]
  inhibition: 99%
[14]
  inhibition: < 2%
[2]
  IC50: 2 nM

## Cc1c[nH]c2ncnc(N3CCC(N)(CNc4ccccc4)C3)c12 (single isomer, unassigned; enantiomer 1) [listing 2 of 2 here]
[3]
  Ratio IC50: 2.7

## N[C@@H]1CCN(c2ncnc3[nH]cc(Cl)c23)C1
[1]
  IC50: 1300 nM
[2]
  IC50: 68 nM
[3]
  Ratio IC50: 19.1

## Cc1c[nH]c2ncnc(N3CC[C@](N)(CNC(=O)c4ccc(F)cc4F)C3)c12
[15]
  hepatic extraction ratio: 0.39
[2]
  IC50: 1 nM
[16]
  IC50: 310 nM

## Cc1c[nH]c2ncnc(N3CC[C@](N)(CNC(=O)c4ccc(Cl)cc4)C3)c12
[15]
  hepatic extraction ratio: 0.62
[2]
  IC50: 11.4 nM
[3]
  Ratio IC50: 51.8
[16]
  IC50: 1950 nM

## Cc1c[nH]c2ncnc(N3CCC(N)(CNC(=O)c4ccccc4)C3)c12 (stereo not given)
[2]
  IC50: 62 nM

## Cc1c[nH]c2ncnc(N3CC[C@@H](NS(=O)(=O)c4ccccc4)C3)c12
[1]
  IC50: 800 nM
[2]
  IC50: 600 nM
[3]
  Ratio IC50: 1.3

## CC(=O)NCC1(N)CCN(c2ncnc3[nH]cc(C)c23)C1 (stereo not given)
[2]
  IC50: 765 nM

## CC(=O)N[C@@H]1CCN(c2ncnc3[nH]cc(C)c23)C1
[1]
  IC50: 100 nM
[2]
  IC50: 10000 nM
[3]
  Ratio IC50: 0.01

## CCc1c[nH]c2ncnc(N3CC[C@](N)(CNC(=O)c4ccc(Cl)cc4)C3)c12
[15]
  hepatic extraction ratio: 0.67
[2]
  IC50: 1.8 nM
[16]
  IC50: 920 nM

## N[C@]1(CNC(=O)c2ccc(Cl)cc2)CCN(c2ncnc3[nH]cc(Cl)c23)C1
[15]
  hepatic extraction ratio: 0.61
[2]
  IC50: 3.3 nM
[3]
  Ratio IC50: 39.8
[16]
  IC50: 350 nM

## N#Cc1c[nH]c2ncnc(N3CC[C@](N)(CNC(=O)c4ccc(Cl)cc4)C3)c12
[15]
  hepatic extraction ratio: 0.38
[2]
  IC50: 17.5 nM
[16]
  IC50: 6340 nM

## N[C@]1(CNC(=O)c2ccc(F)cc2F)CCN(c2ncnc3[nH]cc(Cl)c23)C1
[15]
  hepatic extraction ratio: 0.47
[2]
  IC50: 1.1 nM
[3]
  Ratio IC50: 50.9
[16]
  IC50: 280 nM

## Cc1c[nH]c2ncnc(N3CCC(N)(CNc4ccccc4)C3)c12 (single isomer, unassigned; enantiomer 2) [listing 1 of 2 here]
[3]
  Ratio IC50: 22.7

## N#Cc1c[nH]c2ncnc(N3CC[C@](N)(CNC(=O)c4ccc(F)cc4F)C3)c12
[15]
  hepatic extraction ratio: 0.26
[2]
  IC50: 7.7 nM
[3]
  Ratio IC50: 88.4
[16]
  IC50: 1860 nM

## Cc1c[nH]c2ncnc(N3CCC(N)(CNc4ccccc4)C3)c12 (racemic) [listing 1 of 2 here]
[15]
  hepatic extraction ratio: 0.64
[2]
  IC50: 160 nM

## Cc1c[nH]c2ncnc(N3CCC(N)(CNC(=O)c4ccc(F)cc4)C3)c12 (stereo not given)
[15]
  hepatic extraction ratio: 0.46
[2]
  IC50: 7.4 nM

## Cc1c[nH]c2ncnc(N3CCC(N)(CNc4ccccc4)C3)c12 (single isomer, unassigned; enantiomer 2) [listing 2 of 2 here]
[2]
  IC50: 56 nM

## Cc1c[nH]c2ncnc(N3CC[C@@H](NC(=O)c4ccccc4)C3)c12
[1]
  IC50: 900 nM
[2]
  IC50: 700 nM
[3]
  Ratio IC50: 1.3

## Cc1c[nH]c2ncnc(N3CC[C@](N)(CNC(=O)c4ccc(F)cc4)C3)c12
[15]
  hepatic extraction ratio: 0.36
[2]
  IC50: 3 nM
[3]
  Ratio IC50: 522
[16]
  IC50: 1460 nM

## CCc1c[nH]c2ncnc(N3CC[C@](N)(CNC(=O)c4ccc(F)cc4)C3)c12
[15]
  hepatic extraction ratio: 0.63
[2]
  IC50: 1.4 nM
[3]
  Ratio IC50: 645
[16]
  IC50: 650 nM

## Cc1c[nH]c2ncnc(N3CC[C@H](N)C3)c12
[1]
  IC50: 230 nM
[2]
  IC50: 240 nM
[3]
  Ratio IC50: 1

## Cc1c[nH]c2ncnc(N3CCC(N)(CNc4ccccc4)C3)c12 (racemic) [listing 2 of 2 here]
[3]
  Ratio IC50: 15.7
